Experimental findings from ChEMBL document CHEMBL1122618, “Total chemical synthesis and antitumor evaluation of 4-demethoxy-10,10-dimethyldaunomycin” (1984) are described below.

A value given as a limit tells only on which side of the number the result lay.

The subject of this test is Mus musculus. The experiment in a line: The compound was tested intraperitoneally against P388 acute lymphocytic leukemia in mice (dose 10 mg/kg). It counts as functional. The following applies: route intraperitoneal.

For the compound `CC(=O)[C@@]1(O)C[C@H](OC2CC(N)C(O)C(C)O2)c2c(O)c3c(c(O)c2C1(C)C)C(=O)c1ccccc1C3=O` (stereo partly specified), the T/C was over 316.
